According to PubChem BioAssay AID2060502 (Molecular Pharmacology Branch, DTP, NCI, 2025):
pIC50: −log10 of the molar value.

System: 885724-159-R-J1-PDC complex spheroid viability
Test: Anticancer human tumor 885724-159-R-J1-PDC patient-derived pancreatic adenocarcinoma cell line growth inhibition [GQUAD]
Conditions: for pIC50: curve of first compound; for viability, T/C: stronger effect = lower value; active = viability on the fitted dose curve at most 10% of control; inactive = the rest
Method in brief: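 Viability of tumor cells grown as complex spheroids with endothelial and stromal cells, exposed to drug combinations. Top concentration at or near clinical Cmax (else 10 microM), diluted in half-log increments.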

[1] = second compound 0.0316 µM, first compound 0.0316 µM
[2] = second compound 0.0316 µM, first compound 0.1 µM
[3] = second compound 0.0316 µM, first compound 0.316 µM
[4] = second compound 0.0316 µM, first compound 1 µM
[5] = second compound 0.0316 µM, first compound 3.16 µM
[6] = second compound 0.0316 µM, first compound 10 µM
[7] = second compound 0.1 µM, first compound 0.0316 µM
[8] = second compound 0.1 µM, first compound 0.1 µM
[9] = second compound 0.1 µM, first compound 0.316 µM
[10] = second compound 0.1 µM, first compound 1 µM
[11] = second compound 0.1 µM, first compound 3.16 µM
[12] = second compound 0.1 µM, first compound 10 µM
[13] = second compound 0.316 µM, first compound 0.0316 µM
[14] = second compound 0.316 µM, first compound 0.1 µM
[15] = second compound 0.316 µM, first compound 0.316 µM
[16] = second compound 0.316 µM, first compound 1 µM
[17] = second compound 0.316 µM, first compound 3.16 µM
[18] = second compound 0.316 µM, first compound 10 µM
[19] = second compound 1 µM, first compound 0.0316 µM
[20] = second compound 1 µM, first compound 0.1 µM
[21] = second compound 1 µM, first compound 0.316 µM
[22] = second compound 1 µM, first compound 1 µM
[23] = second compound 1 µM, first compound 3.16 µM
[24] = second compound 1 µM, first compound 10 µM
[25] = second compound 3.16 µM, first compound 0.0316 µM
[26] = second compound 3.16 µM, first compound 0.1 µM
[27] = second compound 3.16 µM, first compound 0.316 µM
[28] = second compound 3.16 µM, first compound 1 µM
[29] = second compound 3.16 µM, first compound 3.16 µM
[30] = second compound 3.16 µM, first compound 10 µM
[31] = second compound 10 µM, first compound 0.0316 µM
[32] = second compound 10 µM, first compound 0.1 µM
[33] = second compound 10 µM, first compound 0.316 µM
[34] = second compound 10 µM, first compound 1 µM
[35] = second compound 10 µM, first compound 3.16 µM
[36] = second compound 10 µM, first compound 10 µM
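Note: spheroids exposed to agents for seven days before readout.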
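Throughout, for viability, T/C: percent of vehicle control viability where 100% = DMSO wells.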

CC1COCCN1c1cc(C2(S(C)(=N)=O)CC2)nc(-c2ccnc3[nH]ccc23)n1 (stereo not drawn) + CN(C)c1ccc(Nc2c3ccc(NC(=O)CCN4CCCC4)cc3nc3cc(NC(=O)CCN4CCCC4)ccc23)cc1
inactive: viability, T/C [1] 102% | viability, T/C [2] 106% | viability, T/C [3] 98.1% | viability, T/C [4] 98.6% | viability, T/C [5] 69.1% | viability, T/C [6] 79.6% | viability, T/C [7] 87.7% | viability, T/C [8] 93.7% | viability, T/C [9] 82% | viability, T/C [10] 87% | viability, T/C [11] 79.3% | viability, T/C [12] 75.3% | viability, T/C [13] 84.5% | viability, T/C [14] 89.6% | viability, T/C [15] 92.3% | viability, T/C [16] 75% | viability, T/C [17] 80% | viability, T/C [18] 63.9% | viability, T/C [19] 89.4% | viability, T/C [20] 74.3% | viability, T/C [21] 76.3% | viability, T/C [22] 73.2% | viability, T/C [23] 76.8% | viability, T/C [24] 53% | viability, T/C [25] 76.3% | viability, T/C [26] 65.1% | viability, T/C [27] 65.3% | viability, T/C [28] 64% | viability, T/C [29] 73% | viability, T/C [30] 51.6% | viability, T/C [31] 71.9% | viability, T/C [32] 81.8% | viability, T/C [33] 85.4% | viability, T/C [34] 67% | viability, T/C [35] 71.9% | viability, T/C [36] 63%
< 5.00: pIC50 (second compound 0.0316 µM) | pIC50 (second compound 0.1 µM) | pIC50 (second compound 0.316 µM) | pIC50 (second compound 1 µM) | pIC50 (second compound 3.16 µM) | pIC50 (second compound 10 µM)

COc1ccc([C@@H](O)c2cc(-c3ncnc4cc(N5CCOCC5)ccc34)c(F)cc2Cl)nn1 + CN(C)c1ccc(Nc2c3ccc(NC(=O)CCN4CCCC4)cc3nc3cc(NC(=O)CCN4CCCC4)ccc23)cc1
5.52: pIC50 (second compound 1 µM)
5.50: pIC50 (second compound 3.16 µM)
5.56: pIC50 (second compound 10 µM)
5.32: pIC50 (second compound 0.1 µM)
5.28: pIC50 (second compound 0.316 µM)
inactive: viability, T/C [1] 88.5% | viability, T/C [2] 89% | viability, T/C [3] 79.8% | viability, T/C [4] 85.3% | viability, T/C [5] 58.4% | viability, T/C [6] 44.6% | viability, T/C [7] 95.7% | viability, T/C [8] 90.5% | viability, T/C [9] 95.7% | viability, T/C [10] 73.5% | viability, T/C [11] 59% | viability, T/C [12] 36.9% | viability, T/C [13] 89.3% | viability, T/C [14] 82.3% | viability, T/C [15] 79.2% | viability, T/C [16] 70.7% | viability, T/C [17] 62.8% | viability, T/C [18] 36.3% | viability, T/C [19] 78.9% | viability, T/C [20] 84.1% | viability, T/C [21] 82.7% | viability, T/C [22] 70.2% | viability, T/C [23] 49.6% | viability, T/C [24] 30.2% | viability, T/C [25] 71.6% | viability, T/C [26] 70.9% | viability, T/C [27] 73.7% | viability, T/C [28] 60.4% | viability, T/C [29] 50.9% | viability, T/C [30] 29.6% | viability, T/C [31] 72.9% | viability, T/C [32] 81.5% | viability, T/C [33] 69.5% | viability, T/C [34] 62.2% | viability, T/C [35] 49% | viability, T/C [36] 25.2%
5.20: pIC50 (second compound 0.0316 µM)

Cc1cccc(N(C)C(=O)C2C(O)CCN2c2nc(C)cc(C(F)(F)F)c2C#N)c1 (stereo not drawn) + CN(C)c1ccc(Nc2c3ccc(NC(=O)CCN4CCCC4)cc3nc3cc(NC(=O)CCN4CCCC4)ccc23)cc1
< 5.00: pIC50 (second compound 0.0316 µM) | pIC50 (second compound 0.1 µM) | pIC50 (second compound 0.316 µM) | pIC50 (second compound 1 µM) | pIC50 (second compound 3.16 µM) | pIC50 (second compound 10 µM)
inactive: viability, T/C [1] 95.6% | viability, T/C [2] 98% | viability, T/C [3] 105% | viability, T/C [4] 92.7% | viability, T/C [5] 108% | viability, T/C [6] 97.7% | viability, T/C [7] 90.3% | viability, T/C [8] 103% | viability, T/C [9] 104% | viability, T/C [10] 90.4% | viability, T/C [11] 90% | viability, T/C [12] 101% | viability, T/C [13] 108% | viability, T/C [14] 86.2% | viability, T/C [15] 88.3% | viability, T/C [16] 87.1% | viability, T/C [17] 100% | viability, T/C [18] 102% | viability, T/C [19] 86% | viability, T/C [20] 80.5% | viability, T/C [21] 83.3% | viability, T/C [22] 82.4% | viability, T/C [23] 89.7% | viability, T/C [24] 83% | viability, T/C [25] 79.8% | viability, T/C [26] 68.8% | viability, T/C [27] 92.3% | viability, T/C [28] 81% | viability, T/C [29] 86.1% | viability, T/C [30] 86.5% | viability, T/C [31] 77% | viability, T/C [32] 79.3% | viability, T/C [33] 75.6% | viability, T/C [34] 80.2% | viability, T/C [35] 78.2% | viability, T/C [36] 56.5%

O=C(c1cc(Cc2n[nH]c(=O)c3ccccc23)ccc1F)N1CCN(C(=O)C2CC2)CC1 + CN(C)c1ccc(Nc2c3ccc(NC(=O)CCN4CCCC4)cc3nc3cc(NC(=O)CCN4CCCC4)ccc23)cc1
< 5.00: pIC50 (second compound 0.0316 µM) | pIC50 (second compound 0.1 µM) | pIC50 (second compound 0.316 µM) | pIC50 (second compound 1 µM) | pIC50 (second compound 3.16 µM) | pIC50 (second compound 10 µM)
inactive: viability, T/C [1] 117% | viability, T/C [2] 93.1% | viability, T/C [3] 89.7% | viability, T/C [4] 92.4% | viability, T/C [5] 95.3% | viability, T/C [6] 88.8% | viability, T/C [7] 101% | viability, T/C [8] 100% | viability, T/C [9] 103% | viability, T/C [10] 106% | viability, T/C [11] 85.3% | viability, T/C [12] 72.5% | viability, T/C [13] 90.6% | viability, T/C [14] 88.1% | viability, T/C [15] 105% | viability, T/C [16] 93.5% | viability, T/C [17] 97.1% | viability, T/C [18] 80% | viability, T/C [19] 83.3% | viability, T/C [20] 80% | viability, T/C [21] 87% | viability, T/C [22] 73.3% | viability, T/C [23] 76.7% | viability, T/C [24] 63.8% | viability, T/C [25] 79.4% | viability, T/C [26] 65.2% | viability, T/C [27] 84.4% | viability, T/C [28] 73.2% | viability, T/C [29] 70.5% | viability, T/C [30] 69.5% | viability, T/C [31] 72.1% | viability, T/C [32] 74.2% | viability, T/C [33] 69.9% | viability, T/C [34] 75.9% | viability, T/C [35] 90.1% | viability, T/C [36] 69.6%
